{
  "source": "patent US8795992B2",
  "about": "“Yeast with increased butanol tolerance involving cell wall integrity pathway” (Butamax Advanced Biofuels LLC, priority 2008, dated 2014)",
  "key": {"[1]": {"test_system": "Δslt2/Δslt2 (BY4743 having homozygous deletion of the SLT2 gene)", "test": "Growth of Δslt2 strain in isobutanol (growth yield, OD600)", "type": "cell-based, Saccharomyces cerevisiae", "details": "1 day (20 hr), 30° C."}, "[2]": {"test_system": "BY4743", "test": "Growth of BY4743 in isobutanol (growth yield, OD600)", "type": "cell-based, Saccharomyces cerevisiae", "details": "1 day (20 hr), 30° C."}},
  "data": [
    {"smiles": "CC(C)CO", "note": "[isobutanol]", "values": [
      {"measurement": "OD (A600)", "setting": "[1]; 0.25 wt % isobutanol", "value": 0.07},
      {"measurement": "OD (A600)", "setting": "[1]; 0.50 wt % isobutanol", "value": 0.03},
      {"measurement": "OD (A600)", "setting": "[1]; 0.75 wt % isobutanol", "value": 0.03},
      {"measurement": "OD (A600)", "setting": "[1]; 0.87 wt % isobutanol", "value": 0.01},
      {"measurement": "OD (A600)", "setting": "[1]; 1.00 wt % isobutanol", "value": 0.01},
      {"measurement": "OD (A600)", "setting": "[1]; 1.25 wt % isobutanol", "value": 0.02},
      {"measurement": "OD (A600)", "setting": "[1]; 1.50 wt % isobutanol", "value": 0.02},
      {"measurement": "OD (A600)", "setting": "[2]; 0.25 wt % isobutanol", "value": ">1"},
      {"measurement": "OD (A600)", "setting": "[2]; 0.50 wt % isobutanol", "value": ">1"},
      {"measurement": "OD (A600)", "setting": "[2]; 0.75 wt % isobutanol", "value": 0.07},
      {"measurement": "OD (A600)", "setting": "[2]; 0.87 wt % isobutanol", "value": 0.07},
      {"measurement": "OD (A600)", "setting": "[2]; 1.00 wt % isobutanol", "value": 0.04},
      {"measurement": "OD (A600)", "setting": "[2]; 1.25 wt % isobutanol", "value": 0.02},
      {"measurement": "OD (A600)", "setting": "[2]; 1.50 wt % isobutanol", "value": 0.04}
    ]}
  ]
}
